How the values were obtained:
[1] = biological target: T1, dopamine receptors (limbic D2) (Rattus norvegicus, UniProt P61169); assay: limbic (accumbens) D2 binding, 3H-spiroperidol; conditions: limbic brain tissue
T1 construct: from tissue
Method: (§1) Following the procedures of Fields et al., Brain Res., 136, 578 (1977) and Yamamura et al., Neurotransmitter Receptor Binding, Raven Press, N.Y. (1978), homogenized limbic brain tissue is incubated with ^3 H-spiroperidol and various concentrations of test compound, filtered and washed and shaken with Hydrofluor scintillation cocktail (National Diagnostics) and counted in a Packard 460 CD scintillation counter. Binding in the presence of test compound is expressed as percent of specific binding [total binding less binding in the presence of 1 μM (+) butaclamol]. This limbic D2 binding procedure assesses a compounds potential binding at dopamine receptors as a predictor of antipsychotic activity.

[2] = biological target: T2, serotonin-2 receptors (5HT2) (Rattus norvegicus, UniProt P14842); assay: serotonin-2 (5HT2) receptor binding in brain cortical tissue; conditions: for inhibition at 1 µM: read-out: % Inhibition of serotonin 5HT2 binding, at 1 μM
T2 construct: employing brain cortical tissue; from tissue; host or cells: brain cortical tissue

[3] = tested on: trained male CD rats (Charles River); assay: conditioned avoidance, shelf-jump response test in trained rats; assay type: in vivo, rat
Description: The antipsychotic/anxiolytic properties of the pyridine N-oxides of this invention were established by standard pharmacologically accepted procedures involving conditioned avoidance studies in which trained male CD rats (Charles River), 400-500 gm body weight, are exposed to a fifteen second warning tone (conditional stimulus) continued for an additional fifteen seconds accompanied by electric shock. The rates can avoid the electric shock by jumping to an exposed shelft (shelf-jump response). A response during the initial warning tone is considered to be an avoidance response while a response during shock delivery is considered an escape response. The avoidance response is determined and expressed as a percentage of total trials from an appropriate number of trials. The shelf-jump response test procedure follows that of Herman et al., Comm. in Psychopharm., 3, 165 (1979).

[4] = detection of metabolite in monkey urine and plasma after administration of the parent drug; assay type: in vivo; conditions: intragastric 4 mg/kg or iv 1 mg/kg of parent drug
Description: (§2) By comparative analysis, the compounds of this invention were discovered to be one major form of several metabolites of the compounds disclosed in U.S. Pat. Nos. 4,636,563 and 4,672,117. This may be illustrated by consideration of the metabolic conversion of the compound of claim 13 of U.S. Pat. No. 4,636,563. Oral administration of the drug 8-fluoro-2,3,4,5-tetrahydro-2-[3-(3-pyridinyl)propyl]-1H-pyrido[4,3-b]indole to rats at a dose of 100 milligrams per kg followed by collectiion of urine and isolation of metabolites by column chromatography and selective solubilization in organic solvents yielded several metabolites. […] This metabolic pathway is consistent with the other anti-psychotic-anxilytic agents disclosed and claimed in U.S. Pat. Nos. 4,636,563 and 4,672,117.

[5] = isolation of metabolites from rat urine after oral administration of the parent drug; assay type: in vivo; conditions: oral administration of parent drug at 100 mg/kg
Description: as §2

[6] = overall appraisal from conditioned avoidance, serotonin binding inhibition and dopamine receptor binding inhibition procedures; conditions: tertiary nitrogen oxides of the parent compared
Method: as §1

T1 sequence (P61169 whole entry): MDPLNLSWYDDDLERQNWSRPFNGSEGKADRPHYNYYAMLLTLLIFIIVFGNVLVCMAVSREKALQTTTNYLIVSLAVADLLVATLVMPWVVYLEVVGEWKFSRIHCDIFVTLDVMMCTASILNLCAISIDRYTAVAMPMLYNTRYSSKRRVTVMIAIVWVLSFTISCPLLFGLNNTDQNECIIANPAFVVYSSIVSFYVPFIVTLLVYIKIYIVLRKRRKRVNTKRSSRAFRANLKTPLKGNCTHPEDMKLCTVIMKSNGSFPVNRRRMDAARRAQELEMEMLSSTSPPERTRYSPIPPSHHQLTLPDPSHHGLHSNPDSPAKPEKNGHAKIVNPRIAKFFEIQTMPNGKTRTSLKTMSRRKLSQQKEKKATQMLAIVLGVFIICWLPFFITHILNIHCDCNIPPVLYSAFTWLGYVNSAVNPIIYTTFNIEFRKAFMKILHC
T2 sequence (P14842 whole entry): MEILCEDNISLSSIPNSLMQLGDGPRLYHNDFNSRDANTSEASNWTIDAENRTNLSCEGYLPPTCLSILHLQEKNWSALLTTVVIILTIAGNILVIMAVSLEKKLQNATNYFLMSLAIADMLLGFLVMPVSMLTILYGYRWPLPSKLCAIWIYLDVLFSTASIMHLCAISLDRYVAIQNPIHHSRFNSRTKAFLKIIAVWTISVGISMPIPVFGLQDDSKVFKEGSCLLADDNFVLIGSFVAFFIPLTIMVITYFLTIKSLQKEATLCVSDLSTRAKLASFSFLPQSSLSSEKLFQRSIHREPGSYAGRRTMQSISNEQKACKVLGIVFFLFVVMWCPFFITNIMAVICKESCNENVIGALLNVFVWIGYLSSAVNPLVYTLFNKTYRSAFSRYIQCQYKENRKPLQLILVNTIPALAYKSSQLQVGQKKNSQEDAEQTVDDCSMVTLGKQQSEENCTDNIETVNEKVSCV

SMILES | inhibition at 1 µM [1] [%] | inhibition at 1 µM [2] [%] | further results
Fc1ccc2[nH]c3c(c2c1)CN(CCCc1cccnc1)CC3 [A, 8-fluoro-2,3,4,5-tetrahydro-2-[3-(3-pyridinyl)propyl]-1H-piperidino(4,3-b]indole, reference compound] | 93 | 78 | Inhibition of shelf-jump ([3]; 20 mg/kg): 73%
NCCc1ccc(O)c(O)c1 [dopamine, reference compound] |  |  | activity at serotonin-2 receptor [2]: inactive

Continued, in another order:

inhibition at 1 µM [1] [%] | inhibition at 1 µM [2] [%] | SMILES | further results
4 | 18 | [O-][n+]1cccc(CCC[N+]2([O-])CCc3[nH]c4ccc(F)cc4c3C2)c1 (stereo not drawn) [B, 8-Fluoro-2,3,4,5-tetrahydro-2-[3-(3-pyridinyl)propyl]-1H-piperidino[4,3-b]indole N,2-dioxide] | 
0 | 18 | [O-][N+]1(CCCc2cccnc2)CCc2[nH]c3ccc(F)cc3c2C1 (stereo not drawn) [C, 8-Fluoro-2,3,4,5-tetrahydro-2-[3-(3-pyridinyl)propyl]-1H-piperidino[4,3-b]indole 2-oxide] | Inhibition of shelf-jump ([3]; result in words, dose not given): not significant
66 | 68 | [O-][n+]1cccc(CCCN2CCc3[nH]c4ccc(F)cc4c3C2)c1 [D, 8-Fluoro-2,3,4,5-tetrahydro-2-[3-(3-pyridinyl)propyl]-1H-piperidino[4,3-b]indole N-oxide] | detection as metabolite in urine and plasma [4]: detected in monkey urine and plasma; metabolite of the parent drug in urine [5]: one of the major metabolites; antipsychotic/anxiolytic activity [6]: meaningful antipsychotic/anxiolytic activity; Inhibition of shelf-jump ([3]; 40 mg/kg): 16%
